# Laboratory results: patent US7345065B2, “Methods and compositions for alleviating pain” (Allergan, Inc., priority 2002, dated 2008)
# What was measured:
# [1] = test system: sulprostone-sensitized wild type mice; experiment: Sulprostone sensitized pain (allodynia), wild type mice; type: in vivo, mouse; conditions: intraperitoneal, wild type mice; clonidine 500 ug/kg, Compound 3 100 ug/kg
# Procedure: Non-specific α-adrenergic agonists were assayed in α-2A receptor deficient (“knockout”) mice (Hein et al., supra, 1999) using a mouse model of sulprostone sensitized pain in which allodynia is evoked by intrathecal administration of a selective prostaglandin E2 receptor agonist to conscious mice essentially as described in Minami et al., Pain 57:217-223 (1994). In this model, the pain response to stroking the flank with a paint brush is scored eight times over a 35 minute period starting 15 minutes following spinal administration of sulprostone and intrathecal or intraperitoneal administration of drug or control vehicle. Sulprostone elicits a “pain” score of 12-13 on a 16-point scale.
# Assays for allodynia in wild type and α-2A knockout mice were performed essentially according to the method of Yaksh and Harty, J. Pharmacology Exp. Ther. 244: 501-507 (1998). In brief, mice were divided into groups of 5-6 animals. Control mice were administered 5 ul DMSO while treated animals were injected with 5 ul DMSO containing various doses of the indicated agent. After intrathecal injection, each mouse was placed in an individual 13×8.5×13 cm Plexiglass enclosure with wood chips on the floor for observation. Allodynia was assessed once every five minutes over a 50 minute time period, with response recorded eight times in the 15 to 50 minute time frame. Allodynia was assessed by light stroking of the flank of the mice with a small paintbrush and ranked as follows: 0, no response; 1, mild squeaking with attempts to move away from the stroking probe; and 2, vigorous squeaking evoked by the stroking probe, biting at the probe and strong efforts to escape. The eight scores for each animal were added together, and the mean for the group determined to give an average total score.
# [2] = test system: Male Sprague-Dawley rats; experiment: Sedative effects in rats (total activity, digicom analyzer chamber); type: in vivo, rat; conditions: single intraperitoneal dose 1 to 1000 μg/kg
# Procedure: (§1) Sedative effects were analyzed by assessing exploratory behavior in a darkened chamber as follows. Mice were weighed, and test compound administered by intrathecal injection in a volume of 5 μl or by intraperitoneal injection in 1 ml/kg volume at the indicated dose. At predetermined time points corresponding with analgesia measurements 5 to 30 minutes following the injection, the animal's activity was determined automatically by placing the mouse in a digicom analyzer chamber (Omnitech Electronic; Columbus, Ohio). The digicom analyzer chamber contains photocell beams criss-crossing the box that are broken as the animal moves around; the chamber was modified for mice by raising the level of the floor. Computer analysis of total animal movement proceeded over a 5-minute time period. Any given animal was used at most twice for this protocol, as learned behavior can affect the data. All animals received at least two weeks rest between studies.
# Male Sprague-Dawley rats that were not subject to surgery were used for assessment of sedative effects. Rats were weighed and compound administered by intravenous or intraperitoneal injection or given orally at the indicated dose. At a predetermined time point 5 to 30 minutes following injection, the animal's activity was determined automatically by placing the rat in a digicom analyzer chamber (Omnitech Electronic). Total activity was analyzed as described above.
# [3] = test system: mice; experiment: Sedative effects in mice (exploratory activity, digicom analyzer chamber); type: in vivo, mouse; conditions: intraperitoneal, wild type mice; clonidine 500 ug/kg, Compound 3 100 ug/kg
# Procedure: as §1
compound,measurement,setting,value
O=C1c2ccccc2CCC1Cc1c[nH]c(=S)[nH]1 (racemic) [Compound 3],sulprostone-induced tactile allodynia,[1],alleviated sulprostone-induced tactile allodynia
same,non-sedating dose relative to doses producing a robust reversal of allodynia,[2],> 100 fold
same,concomitant sedation,[3],without concomitant sedation
